The source made the active and inactive calls.

The source of these data is ChEMBL document CHEMBL1201862, “PubChem BioAssay data set” (2004).

The target in assay [1] is Protein-tyrosine kinase 2-beta (Homo sapiens, UniProt Q14289).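 Also: potency of inhibitors of PYK2 kinase phosphorylation of poly-GT substrate.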
The target of assay [2] is T1, NADPH oxidase 1 (Homo sapiens, UniProt Q9Y5S8).
T1 sequence (Q9Y5S8 whole entry): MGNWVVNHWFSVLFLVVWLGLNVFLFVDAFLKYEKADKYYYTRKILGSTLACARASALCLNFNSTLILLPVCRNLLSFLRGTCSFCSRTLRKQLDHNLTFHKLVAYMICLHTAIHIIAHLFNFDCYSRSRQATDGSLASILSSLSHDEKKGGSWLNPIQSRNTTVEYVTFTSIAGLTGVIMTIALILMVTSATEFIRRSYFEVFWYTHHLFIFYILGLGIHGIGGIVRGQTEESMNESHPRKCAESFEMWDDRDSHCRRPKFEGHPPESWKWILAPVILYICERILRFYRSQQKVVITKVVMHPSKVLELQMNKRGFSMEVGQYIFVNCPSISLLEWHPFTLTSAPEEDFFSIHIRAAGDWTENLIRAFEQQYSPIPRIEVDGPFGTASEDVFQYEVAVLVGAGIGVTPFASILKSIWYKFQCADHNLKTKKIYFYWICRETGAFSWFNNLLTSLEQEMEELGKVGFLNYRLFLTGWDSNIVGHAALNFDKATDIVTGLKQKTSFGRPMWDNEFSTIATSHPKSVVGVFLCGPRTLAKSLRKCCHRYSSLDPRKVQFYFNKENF
Kind of assay: Late-stage luminescence-based cell-based dose response assay to identify inhibitors of NADPH oxidase 1 (NOX1): Synthesized analogs. In kind it is functional.

Assay [3] concerns the target T1, NADPH oxidase 1. The assay can be described thus: Luminescence-based cell-based dose response assay to identify inhibitors of NADPH oxidase 1 (NOX1). It is filed as functional.
Assay [4] deals with Lytic switch protein BZLF1 (Epstein-Barr virus (strain B95-8) (HHV-4) (Human herpesvirus 4), UniProt P03206). Kind of assay: EBV ZTA inhibitors, dose response, counter-screen for EBNA-1 inhibitor project, biochemical, fluorescence polarization, Epstein-Barr virus, 1536-well (AID 2377).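 Also: fluorescence polarization of Cy5-labelled ZRE DNA probe bound by purified Zta.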 On the set-up: species or system human gammaherpesvirus 4. (A counterscreen serves to expose hits that act by an unwanted route or on another target.)

For assay [5], the target named is Epstein-Barr nuclear antigen 1 (Epstein-Barr virus (strain B95-8) (HHV-4) (Human herpesvirus 4), UniProt P03211). Kind of assay: EBNA-1 inhibitors, dose response, biochemical, fluorescence polarization, 1536-well (AID 2381).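 Also: fluorescence polarization of a Cy5 DNA probe bound by EBNA-1 protein.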 The arrangement: species or system human gammaherpesvirus 4. (In general: Polarisation of emitted light reports the rotation of a fluorescent probe.)

Assay [6] deals with T2, Bcl-2-related protein A1 (Mus musculus, UniProt Q07440).
T2 sequence (Q07440 whole entry): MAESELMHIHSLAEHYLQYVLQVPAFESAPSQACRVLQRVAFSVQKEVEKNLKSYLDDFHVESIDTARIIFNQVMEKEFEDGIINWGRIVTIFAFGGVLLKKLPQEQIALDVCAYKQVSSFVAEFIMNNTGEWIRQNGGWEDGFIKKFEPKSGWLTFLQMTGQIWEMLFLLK
The assay can be described thus: Bfl-1 binding inhibitors, SAR follow-up, biochemical, fluorescence polarization (AID 1070).

For assay [7], the target named is Glyceraldehyde-3-phosphate dehydrogenase (Homo sapiens, UniProt P04406).
In assay [8] the target is T2, Bcl-2-related protein A1. The assay can be described thus: Bfl-1 inhibitors blocking BH3 peptide binding, confirmation, biochemical, TR-FRET, mouse Bfl-1 (AID 621).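 Also: TR-FRET binding of GST-Bfl-1 to FITC-labelled Bid peptide via terbium antibody.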
A further assay deals with Mucolipin-3 (Homo sapiens, UniProt Q8TDD5). The assay can be described thus: Dose response cell-based high-throughput screening assay for agonists of the transient receptor potential channel ML3 (TRPML3). [Related pubchem assays: 1526, 1424, 1448 ]. It is filed as functional.
The target in the next assay is Ion channel NompC (Danio rerio, UniProt Q7T1G6). The assay can be described thus: Fluorescence counterscreen assay for TRPML3 agonists: dose response cell-based high-throughput screening assay to identify agonists of the transient receptor potential channel N1 (TRPN1). [Related pubchem assays: 1526, 1424, 1448 ]. In kind it is functional.
For assay [9], the target named is T3, Polyadenylate-binding protein 1 (Homo sapiens, UniProt P11940). The assay can be described thus: PABP1 MLLE–PAM2 interaction inhibitors, dose response, miRNA deadenylation inhibitor project, biochemical, fluorescence polarization, Cy5-PAM2 peptide, secondary (AID 602260). In kind it is functional. The settings on record: read-out: IC50_Mean.
For assay [10], the target named is T3, Polyadenylate-binding protein 1. Kind of assay: PABP1 MLLE–PAM2 binding inhibitor potency, dose response, biochemical, fluorescence polarization, FITC-PAM2 peptide (AID 602259). In kind it is functional. The settings on record: read-out: IC50_Mean.
Assay [11] in a line: A High Throughput Confirmatory Assay used to Identify Novel Compounds that Inhibit Mycobacterium Tuberculosis in the absence of Glycerol. It is filed as functional.
Assay [12] has as its target Diphosphomevalonate decarboxylase (Streptococcus pneumoniae serotype 2 (strain D39 / NCTC 7466), UniProt Q9FD53). The assay can be described thus: S. pneumoniae DPM-DC inhibition retest, confirmation, biochemical, cuvette format, coupled NADH fluorescence (AID 1028). It is filed as functional.
Assay [13] deals with FAD-linked sulfhydryl oxidase ALR (Homo sapiens, UniProt P55789). Kind of assay: inhibitors of human ALR sulfhydryl oxidase, dose response, biochemical, H2O2 detection, luminescence, cherry-pick (AID 493248).
In assay [14] the target is DNA dC->dU-editing enzyme APOBEC-3G (Homo sapiens, UniProt Q9HC16). Kind of assay: Dose Response confirmation of small molecule APOBEC3G DNA Deaminase Inhibitors via a fluorescence-based single-stranded DNA deaminase assay. [Related pubchem assays (depositor defined):AID493012, AID493028]. In kind it is functional.
Assay [15] has as its target T4, Mannose-6-phosphate isomerase (Homo sapiens, UniProt P34949).
T4 sequence (P34949 whole entry): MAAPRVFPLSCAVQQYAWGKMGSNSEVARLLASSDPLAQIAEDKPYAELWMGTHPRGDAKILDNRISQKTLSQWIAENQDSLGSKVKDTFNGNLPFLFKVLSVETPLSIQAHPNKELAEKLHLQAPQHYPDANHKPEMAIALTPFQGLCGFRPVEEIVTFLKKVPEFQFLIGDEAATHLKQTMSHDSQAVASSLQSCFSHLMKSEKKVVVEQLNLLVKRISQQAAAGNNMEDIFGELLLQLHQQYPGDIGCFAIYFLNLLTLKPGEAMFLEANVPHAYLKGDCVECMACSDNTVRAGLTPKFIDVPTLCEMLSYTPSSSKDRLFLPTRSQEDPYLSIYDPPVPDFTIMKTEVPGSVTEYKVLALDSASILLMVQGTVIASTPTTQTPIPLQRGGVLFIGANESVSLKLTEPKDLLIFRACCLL
Kind of assay: inhibitors of human PMI, primary screen, biochemical, fluorescence intensity, coupled assay (AID 1209).

For assay [16], the target named is DNA dC->dU-editing enzyme APOBEC-3A (Homo sapiens, UniProt P31941). The assay can be described thus: APOBEC3A DNA deaminase inhibitors, dose response, biochemical (AID 504722). In kind it is functional.
In assay [17] the target is T4, Mannose-6-phosphate isomerase. Kind of assay: PMI enzyme inhibitors, confirmation, biochemical, fluorescence intensity (AID 1535).
For the next assay, the target named is T5, Phosphomannomutase 2 (Homo sapiens, UniProt O15305).
T5 sequence (O15305 whole entry): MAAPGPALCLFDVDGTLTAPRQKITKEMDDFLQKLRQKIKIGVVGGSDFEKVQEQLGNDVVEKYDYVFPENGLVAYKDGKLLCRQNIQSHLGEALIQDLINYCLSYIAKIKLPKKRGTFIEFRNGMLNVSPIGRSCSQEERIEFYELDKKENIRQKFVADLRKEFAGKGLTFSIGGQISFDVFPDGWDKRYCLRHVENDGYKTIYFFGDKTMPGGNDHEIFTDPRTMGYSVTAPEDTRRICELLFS
The assay can be described thus: Counter screen SAR assay for PMM2 inhibitors via a fluorescence intensity assay. [Related pubchem assays (depositor defined):AID1545, AID1574].

The target in assay [18] is T1, NADPH oxidase 1. In kind it is functional, cell-based.
Assay [19] has as its target T6, Carboxy-terminal domain RNA polymerase II polypeptide A small phosphatase 1 (Homo sapiens, UniProt Q9GZU7).
T6 sequence (Q9GZU7 whole entry): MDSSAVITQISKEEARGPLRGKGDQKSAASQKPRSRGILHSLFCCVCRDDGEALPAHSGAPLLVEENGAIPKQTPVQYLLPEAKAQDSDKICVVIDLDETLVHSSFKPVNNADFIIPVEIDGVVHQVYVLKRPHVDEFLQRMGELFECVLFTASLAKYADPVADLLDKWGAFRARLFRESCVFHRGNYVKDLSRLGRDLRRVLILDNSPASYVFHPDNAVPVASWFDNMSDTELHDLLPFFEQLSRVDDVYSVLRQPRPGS
Kind of assay: inhibitors of CTDSP1, concentration-response testing, biochemical assay, absorbance-based, actives from ultra-high-throughput screening (AID 540297). It is filed as functional.

Assay [20] concerns the target Aryl hydrocarbon receptor (Homo sapiens, UniProt P35869). Kind of assay: Luminescence-based cell-based high throughput dose response assay for activators of the Aryl Hydrocarbon Receptor (AHR). [Related pubchem assays: 2796 (Primary screen (AHR activators in singlicate)), 2845 (Confirmation screen (AHR activators in triplicate)), 434939 (Counterscreen (PXR activators in triplicate)), 2804 (Summary (AHR activators))]. In kind it is ADME.

Assay [21] addresses Mitochondrial peptide methionine sulfoxide reductase (Bos taurus, UniProt P54149). In kind it is functional.
Assay [22] can be described thus: inhibitors of intracellular T. cruzi replication, confirmation, NIH3T3 host cells, beta-gal luminescence (AID 2044).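 Also: intracellular parasites grown in NIH/3T3 mouse fibroblasts as host cells; luminescent beta-galactosidase reporter signal from transgenic T. cruzi replicating inside host cells; inhibitors lower the luminescence signal.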 It is filed as functional, cell-based.
Assay [23] can be described thus: cytotoxicity toward NIH3T3 fibroblasts, dose response, counter-screen, cell-based, ATP luminescence, mouse fibroblasts (AID 2010).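 Also: cells exposed to compound for about 90 hours before reading.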 In kind it is functional.
A short description of assay [24]: THP-1 cell cytotoxicity, dose response, cytotoxicity control for Vif-APOBEC3G degradation inhibitor project, THP-1 cells (AID 1117359). It is filed as functional. As to conditions: Human immunodeficiency virus 1, THP-1.
The test system of another assay is P388. Kind of assay: cells. In kind it is functional. The settings on record: Mus musculus, P388.
Assay [25] is described as follows: Luminescence-based dose response cell-based high throughput screening assay for cytotoxic compounds using the IEC-6 intestinal epithelial cell line. [Related pubchem assays: 1858 (Summary AID.), 1825 (Counterscreen.), 1907 (Confirmation screen.)]. In kind it is functional.
A further assay deals with P388/ADR. Kind of assay: cells. In kind it is functional. As to conditions: Mus musculus, P388/ADR.
The next assay relates to SN12K1. The assay can be described thus: cells. It is filed as functional. As to conditions: Homo sapiens.
Assay [26] addresses T4, Mannose-6-phosphate isomerase. The assay can be described thus: human PMI inhibitors, high substrate, primary screen, biochemical, fluorescence intensity, high mannose 6-phosphate (AID 1220).

T3 sequence (P11940 whole entry): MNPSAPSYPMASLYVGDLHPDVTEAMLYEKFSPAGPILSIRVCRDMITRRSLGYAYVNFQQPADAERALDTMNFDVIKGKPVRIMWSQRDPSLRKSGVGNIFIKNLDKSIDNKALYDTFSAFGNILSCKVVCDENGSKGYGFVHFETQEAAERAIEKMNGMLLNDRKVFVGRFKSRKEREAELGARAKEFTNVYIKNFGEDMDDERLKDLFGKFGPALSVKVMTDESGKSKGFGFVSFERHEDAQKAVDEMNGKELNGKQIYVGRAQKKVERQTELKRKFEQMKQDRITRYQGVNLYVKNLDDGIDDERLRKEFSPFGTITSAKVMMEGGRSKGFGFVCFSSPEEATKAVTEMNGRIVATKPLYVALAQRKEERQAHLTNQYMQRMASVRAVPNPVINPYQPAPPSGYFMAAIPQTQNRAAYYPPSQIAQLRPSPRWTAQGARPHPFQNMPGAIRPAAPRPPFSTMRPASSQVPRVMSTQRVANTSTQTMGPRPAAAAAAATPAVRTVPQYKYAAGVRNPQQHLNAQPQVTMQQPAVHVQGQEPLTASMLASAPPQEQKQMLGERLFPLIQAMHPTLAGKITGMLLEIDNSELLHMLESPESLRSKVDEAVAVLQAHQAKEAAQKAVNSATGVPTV
Sequence of Diphosphomevalonate decarboxylase (Q9FD53 whole entry): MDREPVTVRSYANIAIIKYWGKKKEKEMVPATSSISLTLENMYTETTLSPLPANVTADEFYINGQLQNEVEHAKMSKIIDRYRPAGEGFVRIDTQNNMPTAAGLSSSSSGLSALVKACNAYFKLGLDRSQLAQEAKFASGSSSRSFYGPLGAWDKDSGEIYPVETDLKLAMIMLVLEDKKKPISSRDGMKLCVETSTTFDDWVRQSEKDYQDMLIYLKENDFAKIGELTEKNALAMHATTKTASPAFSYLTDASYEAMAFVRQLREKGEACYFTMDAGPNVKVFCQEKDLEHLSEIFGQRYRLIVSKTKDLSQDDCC
Sequence of Ion channel NompC (Q7T1G6 whole entry): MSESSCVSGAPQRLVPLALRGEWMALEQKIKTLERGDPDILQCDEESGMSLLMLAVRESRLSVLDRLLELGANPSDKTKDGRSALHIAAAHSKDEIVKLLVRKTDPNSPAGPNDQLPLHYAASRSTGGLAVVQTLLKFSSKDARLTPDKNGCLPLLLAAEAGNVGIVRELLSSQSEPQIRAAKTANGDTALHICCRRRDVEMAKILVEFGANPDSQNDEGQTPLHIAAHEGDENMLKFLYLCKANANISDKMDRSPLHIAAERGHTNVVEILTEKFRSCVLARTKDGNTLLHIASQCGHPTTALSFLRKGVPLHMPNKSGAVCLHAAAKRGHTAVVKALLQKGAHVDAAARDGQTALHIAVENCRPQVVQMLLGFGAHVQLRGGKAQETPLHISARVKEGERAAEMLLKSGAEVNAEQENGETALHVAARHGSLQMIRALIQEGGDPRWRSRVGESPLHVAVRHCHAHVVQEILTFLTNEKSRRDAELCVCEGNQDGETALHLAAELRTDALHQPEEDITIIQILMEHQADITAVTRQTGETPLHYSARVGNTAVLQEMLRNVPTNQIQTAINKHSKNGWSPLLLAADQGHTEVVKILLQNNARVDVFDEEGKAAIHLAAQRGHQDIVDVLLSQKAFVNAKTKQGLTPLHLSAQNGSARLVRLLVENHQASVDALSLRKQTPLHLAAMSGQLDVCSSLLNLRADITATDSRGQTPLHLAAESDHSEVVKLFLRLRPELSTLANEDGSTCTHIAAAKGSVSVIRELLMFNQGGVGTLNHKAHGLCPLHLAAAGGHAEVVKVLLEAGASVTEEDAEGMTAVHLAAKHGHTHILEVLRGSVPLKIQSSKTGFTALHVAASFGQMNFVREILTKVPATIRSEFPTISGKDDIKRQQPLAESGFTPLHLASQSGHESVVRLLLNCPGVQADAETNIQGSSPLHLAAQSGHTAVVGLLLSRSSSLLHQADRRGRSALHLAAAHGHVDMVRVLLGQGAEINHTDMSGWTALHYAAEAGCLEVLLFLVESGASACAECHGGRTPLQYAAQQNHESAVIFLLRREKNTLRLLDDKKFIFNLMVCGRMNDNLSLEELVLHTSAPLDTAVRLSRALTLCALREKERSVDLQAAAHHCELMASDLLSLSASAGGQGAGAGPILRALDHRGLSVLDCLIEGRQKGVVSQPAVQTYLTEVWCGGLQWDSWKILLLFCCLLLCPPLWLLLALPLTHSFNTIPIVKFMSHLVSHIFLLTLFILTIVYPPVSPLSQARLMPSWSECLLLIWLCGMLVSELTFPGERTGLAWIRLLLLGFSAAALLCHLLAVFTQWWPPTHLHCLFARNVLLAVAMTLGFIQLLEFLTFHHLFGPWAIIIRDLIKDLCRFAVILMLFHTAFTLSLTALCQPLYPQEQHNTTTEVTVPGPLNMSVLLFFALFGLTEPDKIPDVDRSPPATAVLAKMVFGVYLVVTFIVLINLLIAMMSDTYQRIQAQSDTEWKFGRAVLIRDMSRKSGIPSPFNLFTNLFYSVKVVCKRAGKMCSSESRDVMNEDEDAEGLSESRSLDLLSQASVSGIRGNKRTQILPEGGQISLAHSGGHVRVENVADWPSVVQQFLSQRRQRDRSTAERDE
Sequence of Glyceraldehyde-3-phosphate dehydrogenase (P04406 whole entry): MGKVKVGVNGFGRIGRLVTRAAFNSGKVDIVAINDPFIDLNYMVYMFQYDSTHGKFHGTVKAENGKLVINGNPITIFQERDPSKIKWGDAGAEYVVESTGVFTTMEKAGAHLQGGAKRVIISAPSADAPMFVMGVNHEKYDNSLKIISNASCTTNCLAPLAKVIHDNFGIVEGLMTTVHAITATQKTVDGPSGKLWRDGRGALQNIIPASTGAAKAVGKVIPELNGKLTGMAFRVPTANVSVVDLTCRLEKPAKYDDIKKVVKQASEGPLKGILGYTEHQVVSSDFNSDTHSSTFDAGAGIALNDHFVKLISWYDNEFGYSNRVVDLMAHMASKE
Sequence of Protein-tyrosine kinase 2-beta (Q14289 whole entry): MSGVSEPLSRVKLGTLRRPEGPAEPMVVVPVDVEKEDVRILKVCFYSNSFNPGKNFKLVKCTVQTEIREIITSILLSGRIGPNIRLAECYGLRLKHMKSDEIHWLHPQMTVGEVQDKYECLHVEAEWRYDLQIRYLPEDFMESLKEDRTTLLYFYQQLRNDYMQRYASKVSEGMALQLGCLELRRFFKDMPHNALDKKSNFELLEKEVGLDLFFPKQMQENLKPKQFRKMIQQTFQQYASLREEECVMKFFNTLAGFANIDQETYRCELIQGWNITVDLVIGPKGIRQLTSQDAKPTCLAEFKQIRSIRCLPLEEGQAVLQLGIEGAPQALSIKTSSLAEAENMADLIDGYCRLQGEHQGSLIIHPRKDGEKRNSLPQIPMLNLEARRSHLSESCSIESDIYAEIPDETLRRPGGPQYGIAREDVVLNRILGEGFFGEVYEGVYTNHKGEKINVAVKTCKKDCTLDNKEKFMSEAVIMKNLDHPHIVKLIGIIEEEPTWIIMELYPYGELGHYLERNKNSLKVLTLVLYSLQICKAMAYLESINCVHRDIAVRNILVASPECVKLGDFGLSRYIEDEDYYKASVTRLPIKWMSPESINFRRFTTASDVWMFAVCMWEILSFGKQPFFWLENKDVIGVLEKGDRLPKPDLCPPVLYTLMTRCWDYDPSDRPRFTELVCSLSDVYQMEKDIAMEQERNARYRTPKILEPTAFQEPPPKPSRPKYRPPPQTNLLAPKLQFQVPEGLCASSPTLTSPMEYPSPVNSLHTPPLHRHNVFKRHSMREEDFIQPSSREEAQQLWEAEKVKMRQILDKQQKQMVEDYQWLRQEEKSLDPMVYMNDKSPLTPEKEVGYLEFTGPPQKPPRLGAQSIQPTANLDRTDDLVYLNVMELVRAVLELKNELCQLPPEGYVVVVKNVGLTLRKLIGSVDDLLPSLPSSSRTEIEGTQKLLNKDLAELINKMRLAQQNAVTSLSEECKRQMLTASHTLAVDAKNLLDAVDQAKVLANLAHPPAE
Sequence of Epstein-Barr nuclear antigen 1 (P03211 whole entry): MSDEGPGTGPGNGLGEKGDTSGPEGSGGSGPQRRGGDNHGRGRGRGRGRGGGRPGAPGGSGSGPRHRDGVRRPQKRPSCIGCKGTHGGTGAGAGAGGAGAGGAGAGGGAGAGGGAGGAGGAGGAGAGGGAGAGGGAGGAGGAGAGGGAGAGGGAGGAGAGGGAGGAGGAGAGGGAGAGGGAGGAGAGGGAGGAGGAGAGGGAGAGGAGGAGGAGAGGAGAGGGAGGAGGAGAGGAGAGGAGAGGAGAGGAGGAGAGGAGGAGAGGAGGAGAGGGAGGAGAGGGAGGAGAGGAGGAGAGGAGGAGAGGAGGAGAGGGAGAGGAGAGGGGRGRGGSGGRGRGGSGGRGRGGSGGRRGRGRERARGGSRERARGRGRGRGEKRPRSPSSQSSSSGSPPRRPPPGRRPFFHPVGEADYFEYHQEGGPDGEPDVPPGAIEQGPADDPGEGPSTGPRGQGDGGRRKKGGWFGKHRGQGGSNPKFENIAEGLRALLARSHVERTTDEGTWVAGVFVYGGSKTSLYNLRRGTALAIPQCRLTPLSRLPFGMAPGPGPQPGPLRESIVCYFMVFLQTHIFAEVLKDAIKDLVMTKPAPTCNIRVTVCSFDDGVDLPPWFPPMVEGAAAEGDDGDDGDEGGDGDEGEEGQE
Sequence of DNA dC->dU-editing enzyme APOBEC-3A (P31941 whole entry): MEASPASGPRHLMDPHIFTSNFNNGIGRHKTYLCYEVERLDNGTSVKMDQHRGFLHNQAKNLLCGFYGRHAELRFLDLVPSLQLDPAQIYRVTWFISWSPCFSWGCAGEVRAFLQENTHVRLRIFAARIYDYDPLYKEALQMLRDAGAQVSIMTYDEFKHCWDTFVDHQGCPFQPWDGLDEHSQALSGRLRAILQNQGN
Sequence of Lytic switch protein BZLF1 (P03206 whole entry): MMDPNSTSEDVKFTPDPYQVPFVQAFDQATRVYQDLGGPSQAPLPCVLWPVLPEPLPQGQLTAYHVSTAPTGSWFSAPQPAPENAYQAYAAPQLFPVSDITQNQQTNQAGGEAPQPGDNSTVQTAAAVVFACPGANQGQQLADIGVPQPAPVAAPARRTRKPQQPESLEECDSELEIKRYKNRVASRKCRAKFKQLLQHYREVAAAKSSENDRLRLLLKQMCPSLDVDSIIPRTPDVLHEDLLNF

As for `N#Cc1cnn2c1nc(N1CCOCC1)c1ccccc12`, the IC50 in assay [1] is on record as > 69.5 µM (not active).

Consider `O=S1(=O)c2ccccc2Nc2ccccc21`, for which the figures for the IC50 on NADPH oxidase 1 [2] and at NADPH oxidase 1 [3] were > 50 µM (not active) and 6.6 µM (active), respectively.

As to `Cc1ccccc1OCCn1cc(/C=C(\C#N)C(=O)NCc2ccco2)c2ccccc21`, the figures for the IC50 in assay [4] and in [5] were > 111 µM (not active) and 39.9 µM (not active), respectively.

On to `O=C1C(Cl)=C(N2CCOCC2)C(=O)N1c1ccc(Cl)nc1`, for which the IC50 is 12.6 µM (active) at Bcl-2-related protein A1 [6], > 100 µM (not active) in assay [7] and 15.1 µM (active) on Bcl-2-related protein A1 [8].

Regarding `O=C1C(Cl)=C(N2CCN(Cc3ccccc3)CC2)C(=O)N1Cc1ccccc1`, the EC50 (commonly the midpoint of the concentration-response curve) on Mucolipin-3 was 5.29 µM (active); on Ion channel NompC, > 29.9 µM (not active). Also, the IC50 in assay [9] and in assay [10] was > 66 µM (inactive) in each case.

For the compound `CCc1nc2ccccc2c(C(=O)Nc2cc(C)ccc2C)c1C`, the IC50 in assay [11] is > 100 µM (active).

For the compound `CN(C)C(=O)c1ccc(-n2sc3ccccc3c2=O)cc1`, in assay [12], the IC50 was 21.9 µM (active).

Consider `COc1ccc(-c2n[nH]c(=S)[nH]2)cc1OC`, for which the AC50 (commonly the midpoint of the concentration-response curve, whichever way the signal moves) in assay [13] was 0.011 µM (active). The IC50 in assay [14] is 3.45 µM (active); in assay [15] it was 8.55 µM (active); in assay [16], > 100 µM (inactive); in assay [17], 29 µM (active); at Phosphomannomutase 2, > 100 µM (inactive).

Take `O=[N+]([O-])c1cccc(-c2nc(-c3ccccc3)c(-c3ccccc3)[nH]2)c1`: on NADPH oxidase 1 [18], the IC50 was > 17 µM (not active).

On to `O=C(N/N=C/c1ccco1)c1ccc(C(=O)N/N=C/c2ccco2)o1`, for which the figures for the IC50 in [19] and in [21] were 4.92 µM (active) and 114 µM (inactive), respectively. In addition, the EC50 in [20] is 5.21 µM (active).

Regarding `CCCCc1c(CCC)c(=N)c2ccccc2n1C`, the EC50 is < 0.1 µM (active) in assay [22], 0.017 µM (active) in “cells” and > 60 µM (inconclusive) in assay [23].

As for `COC1=C(N)C(=O)c2nc(-c3nc(C(=O)O)c(C)c(-c4ccc(OC)c(OC)c4O)c3N)ccc2C1=O` [STREPTONIGRIN], the CC50 (usually the concentration at which the toxic effect on the cells reaches its halfway point) in assay [24] is 2.96 µM (active). Besides, the values for the GI50 in the assay on P388, in the assay with P388/ADR and in the assay with SN12K1 were 0.0352 µM (active), 0.0287 µM (active) and < 0.01 µM (active), respectively. Moreover, the IC50 in assay [25] is 0.0094 µM (active); in assay [26], > 50 µM (not active).
